Assay [1] deals with experimental murine model of steatohepatitis (NASH). Description: Murine model of steatohepatitis (NASH): methionine- and choline-deficient diet (MCD), SerpinB3-transgenic and wild-type (C57BL/7) mice. The conditions noted are these: for liver histology: steatosis and lobular damage / relative liver weight (liver weight/body weight): MCD diet 8 weeks, i.p. daily from Week 4, PPA 0.01 μg/g or Curcumin 0.2 mg/g; for liver histology: steatosis and lobular damage: especially transgenic mice liver; for relative liver weight (liver weight/body weight): wild-type and SerpinB3-transgenic mice, more evident in transgenic mice. The assay is classed as in vivo. The procedure: PPA effect was also assessed in a murine model of fibrosing disease, in particular an experimental model of non-alcoholic steatohepatitis, which is a condition in which a fatty liver, associated with inflammation and fibrosis production, causes, among other things, a high risk of neoplastic transformation. In the study, both SerpinB3-transgenic mice and the respective wild-type (C57BL/7) strain were used, fed for 8 weeks with a methionine- and choline-deficient diet (MCD), which constitutes a recognized steatohepatitis induction model, or with a normal diet. MCD diet-treated transgenic and control mice groups starting from Week 4, were administered daily by intraperitoneal route, PPA (0.01 μg/g), or Curcumin (a molecule with a recognized anti-inflammatory and anti-fibrotic activity in animal models) as control, at standard concentrations (0.2 mg/g).
To assess PPA effect as SerpinB3 inhibitor in an experimental murine model of steatohepatitis (NASH), a condition with a high risk of hepatic tumor, both SerpinB3-transgenic mice and the respective wild-type (C57BL/7) strain were used.
The animals were fed for 8 weeks with a methionine- and choline-deficient diet (MCD), a recognized steatohepatitis induction model, or with a normal diet. MCD diet-treated transgenic and control mice groups, starting from Week 4, were administered daily, by intraperitoneal route, PPA (0.01 μg/g), or Curcumin (a molecule with a recognized anti-inflammatory and anti-fibrotic activity in animal models) as control, at the standard concentration of 0.2 mg/g. […] This effect was more evident in transgenic mice.

The next assay concerns primary human monocytes. The assay can be described thus: Release of soluble CD163 (sCD163) by primary human monocytes. The assay is classed as cell-based. The procedure:
PPA effect was evaluated in this context as well, where primary monocytes incubated 1 week with SerpinB3 at a concentration of 200 ng/ml alone, or in association with PPA (100 ng/ml) were used. Monocytes kept in culture medium and monocytes treated with PPA alone at the same concentrations were used as controls.

Another assay deals with SerpinB3. Description: SerpinB3 mRNA expression in HT29 tumor cells (real-time PCR). The assay is classed as cell-based. To be noted: 24 hours. The method, then:
HT29 tumor cells, constitutively expressing SerpinB3, were used, […] cells/well were seeded into 6-well plates and kept 24 hours prior to treatment in modified McCoy medium (Sigma-Aldrich, Milan, Italy) supplemented with heat-inactivated 10% fetal calf serum, (Sigma-Aldrich, Milan, Italy), 100 U/ mL penicillin, […] streptomycin, and 20 mM L-glutamine (Sigma-Aldrich, Milan, Italy),
Then, PPA (1′-piperidinepropionic acid) was added, at a concentration of 100 ng/ml alone or in combination with recombinant SerpinB3 (SB3) at a concentration of 200 ng/ml, whereas the medium alone (untreated HT-29 cells) was added into control wells. After 24 hours of treatment cells were harvested, and extraction of total cell RNA and reverse transcription were performed according to standard protocols. mRNA SerpinB3 levels were measured by real-time PCR (sense: 5′-GCAAATGCTCCAGAAGAAAG-3′; reverse 5′-CGA GGC AAA ATGAAAA AGA TG-3′) and the results were normalized on the basis of data obtained with housekeeping HPRT1 (sense 5′-TCAGGCAGTATAATCC AAAGATGGT-3′; reverse 5′-[…] -3′).
On the technique in general: Real-time PCR tracks product formation cycle by cycle.

[2] abbreviates: SerpinB3 transgenic mice, MCD diet, PPA 0.01 μg/g i.p. daily from Week 4.

Entries after “also recorded” stand apart in the source; their conditions may differ.

Results on three molecules are retold here after patent publication US11628163B2, “1-piperidinepropionic acid for treating a fibrosing disease” (UNIVERSITÀ DEGLI STUDI DI PADOVA, priority 2017, dated 2023).

Consider `COc1cc(/C=C/C(=O)CC(=O)/C=C/c2ccc(O)c(OC)c2)ccc1O` [Curcumin, reference compound], for which the “liver histology: steatosis and lobular damage” value (from here on “liver histology”) in assay [1] is recorded as “reduced”. For the same molecule, in assay [1] (listed as curcumin), the “liver histology” value is “more marked steatosis, associated with a higher relative liver weight, compared to mice MCD diet-fed, but treated with PPA or curcumin”; the “relative liver weight (liver weight/body weight)” value is reported as “higher relative liver weight, compared to mice MCD diet-fed, but treated with PPA or curcumin”. Moreover, the “reduction of the inflammatory response” value in assay [1] (MCD diet, Curcumin 0.2 mg/g i.p. daily from Week 4) is reported as “obtained also with curcumin”.

`O=C(O)CCN1CCCCC1` [PPA, 1-piperidinepropionic acid]: the “sCD163 release in the culture medium after stimulation with SerpinB3” value with primary human monocytes (primary monocytes, 1 week, SerpinB3 200 ng/ml + PPA 100 ng/ml) is listed as “markedly reduced”. Also, the “spontaneous release of sCD163” value in the assay on primary human monocytes (primary monocytes, PPA alone 100 ng/ml, compared with untreated monocytes) was “reduces”. Besides, in assay [1], the “liver histology” value is given as “reduced; also recorded: more marked steatosis, associated with a higher relative liver weight, compared to mice MCD diet-fed, but treated with PPA or curcumin”; the “relative liver weight (liver weight/body weight)” value is recorded as “reduced; also recorded: higher relative liver weight, compared to mice MCD diet-fed, but treated with PPA or curcumin; also recorded: higher relative liver weight (liver weight/body weight) after MCD diet, compared to mice treated with the same diet”. Moreover, in assay [1] (setting [2]), the “IL-1 beta gene expression” value is “significant decrease”, the Mcp1 gene expression result was “significant decrease” and the TNF-alpha gene expression result is on record as “increase was non-evident; also recorded: increase proved not evident”. Moreover, the “alpha-SMA (marker of stellate cell activation) gene expression” value in assay [1] (both strains (wild-type and SerpinB3-transgenic), MCD diet, PPA 0.01 μg/g i.p. daily from Week 4) was “marked reduction”. Moreover, the “SerpinB3 expression (mRNA) after induction from exogenous SerpinB3” value with SerpinB3 (PPA 100 ng/ml + recombinant SerpinB3 200 ng/ml) is on record as “significantly reduce”. In the assay with SerpinB3 (PPA 100 ng/ml alone, normalized to HPRT1), the “SerpinB3 expression (mRNA), constitutive” value is “significantly reduce; also recorded: inhibit SerpinB3 synthesis”.

B1: SerpinB3: recombinant SerpinB3 (Squamous Cell Carcinoma Antigen, SCCA1), a serine protease inhibitor, added as exogenous stimulus (protein, UniProt P29508 1-390, looked up)
Serpin B3: MNSLSEANTKFMFDLFQQFRKSKENNIFYSPISITSALGMVLLGAKDNTAQQIKKVLHFDQVTENTTGKAATYHVDRSGNVHHQFQKLLTEFNKSTDAYELKIANKLFGEKTYLFLQEYLDAIKKFYQTSVESVDFANAPEESRKKINSWVESQTNEKIKNLIPEGNIGSNTTLVLVNAIYFKGQWEKKFNKEDTKEEKFWPNKNTYKSIQMMRQYTSFHFASLEDVQAKVLEIPYKGKDLSMIVLLPNEIDGLQKLEEKLTAEKLMEWTSLQNMRETRVDLHLPRFKVEESYDLKDTLRTMGMVDIFNGDADLSGMTGSRGLVLSGVLHKAFVEVTEEGAEAAAATAVVGFGSSPTSTNEEFHCNHPFLFFIRQNKTNSILFYGRFSSP
For the molecule B1, the “release of sCD163 induced by SerpinB3” value with primary human monocytes (primary human monocytes, SerpinB3 200 ng/ml, preliminary results) is “induces the release”. Besides, the “SerpinB3 expression (mRNA) after treatment with exogenous SerpinB3” value in the assay with SerpinB3 (recombinant SerpinB3 200 ng/ml) is reported as “increased”.
